“And” between values parts separate entries of the source, which are not always exact repeats. Identical values can stand only once. “Also recorded” adds a separate entry of the source. Like-named read-outs stand apart in the source and are kept apart here.
Legend:
W3100 (E. coli) = experiment: antibiotic activity, bacterial growth inhibition in culture; type: cell-based
Method: (§1) Bacteria were grown in a standard growth culture at pH 7.2. After the cultures were incubated at 37° C. overnight and diluted into fresh medium, controls and the test antibiotics dissolved in 0.3% hydroxy propylcellulose (HPC) were added at various concentrations and then reincubated overnight. The measure of antibiotic activity was determined by the amount of bacterial growth inhibition as shown by measurement of the optical density at 660 nm.

WP2s (E. coli) = experiment: as above; type: cell-based
Method: as §1

P388 leukemia = experiment: murine P388 leukemia antitumor activity; type: in vivo
Method: The murine P388 leukemia system, maintained intraperitoneally in female DBA/2 mice, was used to evaluate antitumor activity.
The P388 antileukemic activity of the test compound (M-TAG) was assessed by mean survival days, percentage increased life span or %ILS, and number of survivors after 45 days. The %ILS was calculated as follows:
%ILS=(T-C)/C×100 where T is the mean survival days of the treated mice and C is the mean survival days of the untreated mice

Ehrlich ascites = experiment: murine Ehrlich ascites antitumor activity; type: in vivo
Method: The antitumor activity of M-TAG for the murine Ehrlich ascities tumor was also determined. Ehrlich ascites was maintained i.p. in female BALB/C mice. For antitumor studies, 1×10^7 Ehrlich ascites cells (in 0.10 ml) were implanted i.p. in male BD2F1 mice. Drug was administered i.p. (single LD10 dose) one day after tumor implantation.

[1] = system: peripheral leukocyte (WBC); experiment: effects on peripheral leukocyte (WBC) count; type: in vivo, mice; conditions: LD10-range dose i.p., days 3, 4, 5, 6 and 10
Method: Comparative studies were performed with M-TAG and mitomycin C. Drug was dissolved in absolute ethanol, and then adjusted to a final concentration of 8% ethanol-92% sterile water. Blood samples obtained were diluted in 9.98 ml of Isoton (a neutral isotonic buffer solution) and counted in a Coulter counter after lysis with Zapoglobin (an enzyme solution which lyses red blood cells but not white blood cells). WBC counts are expressed as a percentage of values from control mice receiving drug vehicle only.

E. coli WP2s (λ) = conditions: for Induction of prophage, PFU/DISH: 24 hours
[2] = human bone marrow CFU-C assay; conditions: human, bone marrow cells
Method: (§2) The human bone marrow CFU-C assay measures human bone marrow cells committed to granulocyte-macrophage differentiation. This in vitro assay serves as a model for predicting the relative toxicity of an experimental drug on the granulocytic series of the bone marrow. […] Both drugs were dissolved in 0.5% DMSO, and nucleated human bone marrow cells were exposed in vitro (for 90 minutes at 37° C.) to varying concentrations of each drug. The cells were then plated in triplicate in 3% agar for the CFU-C assay, using GCT, (Giant Cell Tumor) extract (Gibco, Grand Island, N.Y.) as colony-stimulating factor.

human bone marrow cells = experiment: human bone marrow CFU-C assay
Method: as §2

B16 melanoma = experiment: murine B16 melanoma antitumor activity
Source text: Activity against the murine B16 melanoma is currently being determined.

[3] = toxic single doses in normal CD2F1 mice; conditions: for Deaths due to drug toxicity: up to 45 days
Method: Drug was administered intraperitoneally (i.p.) in a volume of 0.1 ml per 10 grams body weight.

[4] = Escherichia coli, 0.04 mcg/ml, 37° C. overnight, read-out: amount of bacterial growth inhibition (first figure)
[5] = Escherichia coli, 0.4 mcg/ml, 37° C. overnight, read-out: amount of bacterial growth inhibition (first figure)
[6] = Escherichia coli, 4.0 mcg/ml, 37° C. overnight, read-out: amount of bacterial growth inhibition (first figure)
[7] = Escherichia coli, 40 mcg/ml, 37° C. overnight, read-out: amount of bacterial growth inhibition (first figure)
[8] = Escherichia coli, 400 mcg/ml, 37° C. overnight, read-out: amount of bacterial growth inhibition (first figure)
[9] = approximate LD10 dose (M-TAG 250 mg/kg; mitomycin C 4 mg/kg), day one

Structure (SMILES): CO[C@@]12[C@H](COC(N)=O)C3=C(C(=O)C(C)=C(N)C3=O)N1C[C@H]1[C@@H]2N1C(=S)N[C@@H]1O[C@H](COC(C)=O)[C@@H](OC(C)=O)[C@H](OC(C)=O)[C@H]1NC(C)=O [M-TAG, 1a(N-2-acetamido-3,4,6-tri-O-acetyl-2-deoxy-D-glucopyranosylthiocarbamoyl)-mitomycin C]
- optical density at 660 nm (figure in parentheses) (W3100 (E. coli); 0.4 mcg/ml): 0.51
- optical density at 660 nm (figure in parentheses) (W3100 (E. coli); 4.0 mcg/ml): 0.30
- optical density at 660 nm (figure in parentheses) (W3100 (E. coli); 40 mcg/ml): 0.07
- optical density at 660 nm (figure in parentheses) (W3100 (E. coli); 400 mcg/ml): 0.04
- inhibition at 0.04 µg/mL (W3100 (E. coli); [4]): 33%
- inhibition at 0.4 µg/mL (W3100 (E. coli); [5]): 31%
- inhibition at 4 µg/mL (W3100 (E. coli); [6]): 50%
- inhibition at 40 µg/mL (W3100 (E. coli); [7]): 86%
- inhibition at 400 µg/mL (W3100 (E. coli); [8]): 92%
- optical density at 660 nm (figure in parentheses) (WP2s (E. coli); 0.04 mcg/ml): 0.41
- optical density at 660 nm (figure in parentheses) (WP2s (E. coli); 0.4 mcg/ml): 0.29
- optical density at 660 nm (figure in parentheses) (WP2s (E. coli); 4.0 mcg/ml): 0.30
- optical density at 660 nm (figure in parentheses) (WP2s (E. coli); 40 mcg/ml): 0.12
- optical density at 660 nm (figure in parentheses) (WP2s (E. coli); 400 mcg/ml): 0.009
- inhibition at 0.04 µg/mL (WP2s (E. coli); [4]): 39%
- inhibition at 0.4 µg/mL (WP2s (E. coli); [5]): 51%
- inhibition at 4 µg/mL (WP2s (E. coli); [6]): 50%
- inhibition at 40 µg/mL (WP2s (E. coli); [7]): 76%
- inhibition at 400 µg/mL (WP2s (E. coli); [8]): 98%
- overall survivals, M-TAG versus mitomycin C at LD10 dose (in words) (P388 leukemia; LD10 dose): no statistical difference in the overall survivals
- % ILS (P388 leukemia; [9]): 85%
- Mean Survival (P388 leukemia; [9]): 22 days
- antitumor activity against murine P388 leukemia (in words) (P388 leukemia; mouse, in vivo): equivalent to that achieved with the parent mitomycin C
- antitumor activity against murine Ehrlich ascites (in words) (Ehrlich ascites; mouse, in vivo): significant antitumor activity
- % ILS (Ehrlich ascites; single approximate LD10 dose i.p. (M-TAG 250 mg/kg; mitomycin C 4 mg/kg), one day after implantation): 66%
- Mean Survival (Ehrlich ascites; single approximate LD10 dose i.p., 250 mg/kg): 22.8 days
- WBC depression / myelotoxicity (in words) [1]: no significant depression in WBC counts at all days tested; also recorded: no significant myelotoxicity as measured by WBC depression
- maximum increase of phage titer over control (E. coli WP2s (λ)): 50-100%
- Induction of prophage, PFU/DISH (E. coli WP2s (λ); 0.005 ug/ml): 148.5 PFU/DISH
- Induction of prophage, PFU/DISH (E. coli WP2s (λ); 0.020 ug/ml): 152.5 PFU/DISH
- Induction of prophage, PFU/DISH (E. coli WP2s (λ); 0.03125 ug/ml): 591.5 PFU/DISH
- Induction of prophage, PFU/DISH (E. coli WP2s (λ); 0.125 ug/ml): 799.5 PFU/DISH
- Induction of prophage, PFU/DISH (E. coli WP2s (λ); 0.500 ug/ml): 2535.0 PFU/DISH
- Induction of prophage, PFU/DISH (E. coli WP2s (λ); 2.000 ug/ml): 5395.0 PFU/DISH
- Induction of prophage, PFU/DISH (E. coli WP2s (λ); 3.125 ug/ml): 3516.5 PFU/DISH
- Induction of prophage, PFU/DISH (E. coli WP2s (λ); 12.500 ug/ml): 461.5 PFU/DISH
- Induction of prophage, PFU/DISH (E. coli WP2s (λ); 50.000 ug/ml): 169.0 PFU/DISH
- Induction of prophage, PFU/DISH (E. coli WP2s (λ); 200.000 ug/ml): 14.5 PFU/DISH
- activity at 1.5 h, 100 µM [2]: 66%
- activity at 1.5 h, 500 µM [2]: 43%
- activity at 1.5 h, 1000 µM [2]: < 20%
- bone marrow toxicity compared to parent mitomycin-C (in words) (human bone marrow cells): reduced bone marrow toxicity
- mice alive on day 20 (B16 melanoma; M-TAG 250 mg/kg or mitomycin C 4 mg/kg, i.p. day 1): 6 out of 10
- mice alive on day 10 (B16 melanoma; M-TAG 250 mg/kg or mitomycin C 4 mg/kg, i.p. day 1, all vehicle-control mice died): All
- antitumor activity against murine B16 melanoma (in words) (B16 melanoma; mouse, in vivo): significant antitumor activity
- Deaths due to drug toxicity ([3]; 250 mg/kg, single i.p. dose): 0/10
- Deaths due to drug toxicity ([3]; 275 mg/kg, single i.p. dose): 1/10
- Deaths due to drug toxicity ([3]; 300 mg/kg, single i.p. dose): 3/10
- difference in LD10 dose in mice relative to mitomycin C ([3]; molar basis): 30-40 fold
- approximate LD10 dose (molar) ([3]; single i.p. dose): ~346 µmol/kg
- LD10 dose ([3]; single i.p. dose toxic to 10% of normal mice): 275 mg/kg and 250 to 275 mg/kg and ~250 mg/kg

Source: patent US4720543A, “1a-7-substituted derivatives of mitomycin and uses thereof” (priority 1985, dated 1988)
